Reference: patent US20130011427A1 (priority 2009, published 2013)
Each block holds one substance with its values, some of them ahead of it.

How the values were obtained:
[1] = system: HLA-B7 (HLA-B*0702) Tg mice, CD4-depleted splenocytes; type: cell-based, mouse
[2] = system: HLA-A24/huCD8α (HLA-A*2402) Tg mice, CD4-depleted splenocytes; type: cell-based, mouse
[3] = system: HLA-DR4/huCD4 (DRB1*0401) Tg mice, CD8-depleted splenocytes; type: cell-based, mouse
[4] = system: HLA-A2.1 (HLA-A*0201) Tg mice, CD4-depleted splenocytes; type: cell-based, mouse
[5] = system: HLA-DR2 (DRB1*1501) Tg mice, CD8-depleted splenocytes; type: cell-based, mouse
[6] = system: HLA-DR3 (DRB1*0301) Tg mice, CD8-depleted splenocytes; type: cell-based, mouse
[7] = target: HLA-B7 (chimeric HLA-B*0702 / H-2K^d heavy chain) (human; murine) (UniProt P01902); assay: cell-based or functional assay
Chain of UniProt P01902 (P01902 whole entry, change not shown): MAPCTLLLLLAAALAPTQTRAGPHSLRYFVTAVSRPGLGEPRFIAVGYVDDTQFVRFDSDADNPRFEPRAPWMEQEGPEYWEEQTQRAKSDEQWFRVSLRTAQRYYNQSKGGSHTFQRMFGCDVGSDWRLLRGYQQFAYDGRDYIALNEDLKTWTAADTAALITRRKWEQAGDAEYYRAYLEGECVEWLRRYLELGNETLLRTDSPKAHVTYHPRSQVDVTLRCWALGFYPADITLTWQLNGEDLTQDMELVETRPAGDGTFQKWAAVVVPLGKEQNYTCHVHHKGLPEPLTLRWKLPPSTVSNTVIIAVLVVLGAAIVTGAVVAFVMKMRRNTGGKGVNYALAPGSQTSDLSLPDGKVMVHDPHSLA

[8] = target: HLA-A2.1 (HHD monochain) (human; murine); assay: cell-based or functional assay
[9] = target: HLA-DR4 (HLA-DRA*0101 / HLA-DRB1*0401) (human); assay: cell-based or functional assay
[10] = target: HLA-DR3 (HLA-DRA*0101 / HLA-DRB1*0301) (human); assay: cell-based or functional assay
[11] = target: HLA-DR2 (chimeric HLA-DRA1*0101/DRB1*1501 with I-E domains) (human; murine) (UniProt Q8BHN5); assay: cell-based or functional assay
Chain of UniProt Q8BHN5 (Q8BHN5 whole entry, stated change not applied): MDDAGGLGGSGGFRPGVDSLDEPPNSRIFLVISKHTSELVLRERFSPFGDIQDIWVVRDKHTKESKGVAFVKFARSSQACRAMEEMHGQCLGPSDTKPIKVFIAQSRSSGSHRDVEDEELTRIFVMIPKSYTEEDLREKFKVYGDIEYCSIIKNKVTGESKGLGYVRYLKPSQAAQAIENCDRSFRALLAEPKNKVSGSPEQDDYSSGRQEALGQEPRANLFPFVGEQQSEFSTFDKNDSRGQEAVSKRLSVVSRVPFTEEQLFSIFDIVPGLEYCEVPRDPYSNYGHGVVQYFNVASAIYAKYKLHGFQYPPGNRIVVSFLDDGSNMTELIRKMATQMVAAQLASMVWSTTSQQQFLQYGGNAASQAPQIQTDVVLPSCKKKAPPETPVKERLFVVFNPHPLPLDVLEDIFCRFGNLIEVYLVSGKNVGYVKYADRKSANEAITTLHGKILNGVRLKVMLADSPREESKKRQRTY

Substance: CDIGESSSSAEVEEHRTI [NS5 145-162]
T cell activation of HLA transgenic mice (SFC/10^6) IFN-γ ELISpot, B7 [1]: 50 ± 22 SFC/10^6

Substance: DTACLAKSYAQMWLLLYF [NS5 755-772]
T cell activation of HLA transgenic mice (SFC/10^6) IFN-γ ELISpot, A24 [2]: 132 ± 62 SFC/10^6

Substance: FACSTKAIGRTILKENIK [E 119-136]
T cell activation of HLA transgenic mice (SFC/10^6) IFN-γ ELISpot, A24 [2]: 179 ± 136 SFC/10^6

Substance: GGVLWDTPSPKEYKK [NS3 1-15]
T cell activation of HLA transgenic mice (SFC/10^6) IFN-γ ELISpot, B7 [1]: 45 ± 12 SFC/10^6

Substance: GIDTNAYYVMTVGTKTFL [E 195-212]
T cell activation of HLA transgenic mice (SFC/10^6) IFN-γ ELISpot, A24 [2]: 137 ± 70 SFC/10^6 | T cell activation of HLA transgenic mice (SFC/10^6) IFN-γ ELISpot, DR4 [3]: 53 ± 16 SFC/10^6

Substance: GKSRAVNMLKRGMPRVL [C 9-25]
T cell activation of HLA transgenic mice (SFC/10^6) IFN-γ ELISpot, B7 [1]: 43 ± 17 SFC/10^6

Substance: IALIALLSVMTMGVFFLL [NS4a 54-71]
T cell activation of HLA transgenic mice (SFC/10^6) IFN-γ ELISpot, A24 [2]: 70 ± 16 SFC/10^6

Substance: ILESDLIIPVTLAGPR [NS1 236-251]
T cell activation of HLA transgenic mice (SFC/10^6) IFN-γ ELISpot, A2 [4]: 78 ± 42 SFC/10^6 | T cell activation of HLA transgenic mice (SFC/10^6) IFN-γ ELISpot, A24 [2]: 43 ± 18 SFC/10^6

Substance: ILPSVVGFWITLQYTKR [NS2b 115-131]
T cell activation of HLA transgenic mice (SFC/10^6) IFN-γ ELISpot, A2 [4]: 108 ± 60 SFC/10^6 | T cell activation of HLA transgenic mice (SFC/10^6) IFN-γ ELISpot, A24 [2]: 56 ± 2 SFC/10^6

Substance: MLGSNTMQRVVFVVLLLL [prM 144-161]
T cell activation of HLA transgenic mice (SFC/10^6) IFN-γ ELISpot, A24 [2]: 59 ± 18 SFC/10^6 | T cell activation of HLA transgenic mice (SFC/10^6) IFN-γ ELISpot, DR2 [5]: 84 ± 32 SFC/10^6 | T cell activation of HLA transgenic mice (SFC/10^6) IFN-γ ELISpot, DR3 [6]: 134 ± 35 SFC/10^6 | T cell activation of HLA transgenic mice (SFC/10^6) IFN-γ ELISpot, DR4 [3]: 315 ± 157 SFC/10^6

Substance: NFQLMNDPGAPWKIWMLR [NS2b 84-101]
T cell activation of HLA transgenic mice (SFC/10^6) IFN-γ ELISpot, A24 [2]: 35 ± 1 SFC/10^6

Substance: PAAPSYTLKLGEYGEVTV [E 171-188]
T cell activation of HLA transgenic mice (SFC/10^6) IFN-γ ELISpot, A2 [4]: 279 ± 217 SFC/10^6 | T cell activation of HLA transgenic mice (SFC/10^6) IFN-γ ELISpot, B7 [1]: 996 ± 100 SFC/10^6

Substance: PTIDVKMMNMEAANLAEV [E 39-56]
T cell activation of HLA transgenic mice (SFC/10^6) IFN-γ ELISpot, A24 [2]: 137 ± 124 SFC/10^6

Substance: PYSGKREDIWCGSLIGTR [NS5 842-859]
T cell activation of HLA transgenic mice (SFC/10^6) IFN-γ ELISpot, A24 [2]: 180 ± 66 SFC/10^6

Substance: SAEVEEHRTIRVLEMV [NS5 153-168]
T cell activation of HLA transgenic mice (SFC/10^6) IFN-γ ELISpot, A2 [4]: 332 ± 52 SFC/10^6 | T cell activation of HLA transgenic mice (SFC/10^6) IFN-γ ELISpot, B7 [1]: 112 ± 72 SFC/10^6 | T cell activation of HLA transgenic mice (SFC/10^6) IFN-γ ELISpot, DR2 [5]: 250 ± 24 SFC/10^6

Substance: TFLVHREWFMDLNLPW [E 210-225]
T cell activation of HLA transgenic mice (SFC/10^6) IFN-γ ELISpot, A2 [4]: 323 ± 175 SFC/10^6 | T cell activation of HLA transgenic mice (SFC/10^6) IFN-γ ELISpot, B7 [1]: 519 ± 477 SFC/10^6

Substance: TLMEFEEPHATKQSVIAL [E 238-255]
T cell activation of HLA transgenic mice (SFC/10^6) IFN-γ ELISpot, A24 [2]: 122 ± 108 SFC/10^6

Substance: TWAENIQVAINQVRAII [NS5 863-879]
T cell activation of HLA transgenic mice (SFC/10^6) IFN-γ ELISpot, A24 [2]: 79 ± 11 SFC/10^6 | T cell activation of HLA transgenic mice (SFC/10^6) IFN-γ ELISpot, DR3 [6]: 121 ± 2 SFC/10^6 | T cell activation of HLA transgenic mice (SFC/10^6) IFN-γ ELISpot, DR4 [3]: 33 ± 1 SFC/10^6

Substance: TWTLIKNMEKPGLKR [NS4b 241-255]
T cell activation of HLA transgenic mice (SFC/10^6) IFN-γ ELISpot, A24 [2]: 53 ± 32 SFC/10^6

Substance: VFGGITYTDVLRYVILV [NS2a 45-61]
T cell activation of HLA transgenic mice (SFC/10^6) IFN-γ ELISpot, A24 [2]: 243 ± 196 SFC/10^6 | T cell activation of HLA transgenic mice (SFC/10^6) IFN-γ ELISpot, DR2 [5]: 307 ± 119 SFC/10^6 | T cell activation of HLA transgenic mice (SFC/10^6) IFN-γ ELISpot, DR4 [3]: 74 ± 11 SFC/10^6

Substance: VLGVATFFCWMAEVPGTK [NS4a 86-103]
T cell activation of HLA transgenic mice (SFC/10^6) IFN-γ ELISpot, A24 [2]: 65 ± 30 SFC/10^6 | T cell activation of HLA transgenic mice (SFC/10^6) IFN-γ ELISpot, DR4 [3]: 63 ± 1 SFC/10^6

Substance: VMTMGVFFLLMQRKGIGK [NS4a 62-79]
T cell activation of HLA transgenic mice (SFC/10^6) IFN-γ ELISpot, A24 [2]: 117 ± 39 SFC/10^6

Substance: WFMWLGARFLEFEALGFL [NS5 477-494]
T cell activation of HLA transgenic mice (SFC/10^6) IFN-γ ELISpot, A24 [2]: 198 ± 60 SFC/10^6

Substance: WMEDKTPVEKWSDVPY [NS5 828-843]
T cell activation of HLA transgenic mice (SFC/10^6) IFN-γ ELISpot, B7 [1]: 39 ± 14 SFC/10^6

IFN-γ ELISpot (SFC/10^6) [7]: 43 SFC/10^6
Substance: WNV C 9-25 peptide

Substance: WNV E 62-77 peptide
IFN-γ ELISpot (SFC/10^6) [8]: 465 SFC/10^6 | IFN-γ ELISpot (SFC/10^6) [9]: 47 SFC/10^6

Substance: WNV E 99-113 peptide
IFN-γ ELISpot (SFC/10^6) [10]: 79 SFC/10^6

IFN-γ ELISpot (SFC/10^6) [11]: 120 SFC/10^6 | IFN-γ ELISpot (SFC/10^6) [10]: 198 SFC/10^6
Substance: WNV E 127-144 peptide

IFN-γ ELISpot (SFC/10^6) [10]: 86 SFC/10^6
Substance: WNV E 135-152 peptide

Substance: WNV E 171-188 peptide
IFN-γ ELISpot (SFC/10^6) [8]: 279 SFC/10^6 | IFN-γ ELISpot (SFC/10^6) [7]: 996 SFC/10^6

Substance: WNV E 210-225 peptide
IFN-γ ELISpot (SFC/10^6) [8]: 323 SFC/10^6 | IFN-γ ELISpot (SFC/10^6) [7]: 519 SFC/10^6

IFN-γ ELISpot (SFC/10^6) [10]: 87 SFC/10^6
Substance: WNV E 384-399 peptide
